From US20230123334A1, “AMINO LIPID COMPOUND, PREPARATION METHOD THEREFOR, AND APPLICATION THEREOF” (SHENZHEN SHENXIN BIOTECHNOLOGY CO., LTD., priority 2020, published 2023)

System: HEK293 cells
Test: Preliminary screening as DNA vectors, GFP transfection of HEK293 cells
Assay type: cell-based
Details: amino lipid/DOPE liposome with 75 ng plasmid DNA (psin-EGFP-IRES-Puro); number of GFP-expressing cells divided by total nuclei (Hoechst)
How it was run: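 First, amino lipid and DOPE were vortexed in sodium acetate buffer (pH 5.6) to form liposomes. Next, these were held with 75 ng EGFP plasmid at room temperature for 30 min. Finally, HEK293 cells were added, cultured at 37° C., Hoechst-stained, and GFP+/total nuclei scored by imaging.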

SMILES	Absolute DNA transfection efficiency in HEK293 cells [%]
CCCCCCCCCCCCCCCCNc1nc(NCCN2CCOCC2)nc(SCCCCCCCC)n1 [S8N16 D2]	2.9
CCCCCCCCCCCCCCCCNc1nc(NCCN2CCCC2)nc(SCCCCCCCC)n1 [S8N16 D3]	3.3
CCCCCCCCCCCCCCCCNc1nc(NCCN2CCCCC2)nc(SCCCCCCCC)n1 [S8N16 D4]	1.0
CCCCCCCCCCCCCCCCNc1nc(NCCN2CCN(C)CC2)nc(SCCCCCCCC)n1 [S8N16 D5]	14.3
CCCCCCCCCCCCCCCCNc1nc(NCCCN(C)C)nc(SCCCCCCCC)n1 [S8N16 D6]	3.7
CCCCCCCCCCCCCCCCNc1nc(NCCN(CC)CC)nc(SCCCCCCCC)n1 [S8N16 D7]	5.2
CCCCCCCCCCCCCCCCNc1nc(NCCCN2CCOCC2)nc(SCCCCCCCC)n1 [S8N16 D8]	8.2
CCCCCCCCCCCCCCCCNc1nc(NCCCN2CCN(C)CC2)nc(SCCCCCCCC)n1 [S8N16 D9]	9.7
CCCCCCCCCCCCCCCCNc1nc(NCC2CCN(C)CC2)nc(SCCCCCCCC)n1 [S8N16 D10]	13.4
CCCCCCCCCCCCCCCCCCNc1nc(NCCN(C)C)nc(SCCCCCCCC)n1 [S8N18 D1]	4.8
CCCCCCCCCCCCCCCCCCNc1nc(NCCN2CCOCC2)nc(SCCCCCCCC)n1 [S8N18 D2]	2.6
CCCCCCCCCCCCCCCCCCNc1nc(NCCN2CCCC2)nc(SCCCCCCCC)n1 [S8N18 D3]	6.7
CCCCCCCCCCCCCCCCCCNc1nc(NCCN2CCCCC2)nc(SCCCCCCCC)n1 [S8N18 D4]	0.9
CCCCCCCCCCCCCCCCCCNc1nc(NCCN2CCN(C)CC2)nc(SCCCCCCCC)n1 [S8N18 D5]	8.6
CCCCCCCCCCCCCCCCCCNc1nc(NCCCN(C)C)nc(SCCCCCCCC)n1 [S8N18 D6]	20.6
CCCCCCCCCCCCCCCCCCNc1nc(NCCN(CC)CC)nc(SCCCCCCCC)n1 [S8N18 D7]	4.1
CCCCCCCCCCCCCCCCCCNc1nc(NCCCN2CCOCC2)nc(SCCCCCCCC)n1 [S8N18 D8]	5.1
CCCCCCCCCCCCCCCCCCNc1nc(NCCCN2CCN(C)CC2)nc(SCCCCCCCC)n1 [S8N18 D9]	5.3
CCCCCCCCCCCCCCCCCCNc1nc(NCC2CCN(C)CC2)nc(SCCCCCCCC)n1 [S8N18 D10]	9.6
CCCCCCCCSc1nc(NCCN(C)C)nc(SCCCCCCCC)n1 [S8S8 D1]	17.9
CCCCCCCCSc1nc(NCCN2CCOCC2)nc(SCCCCCCCC)n1 [S8S8 D2]	17.6
CCCCCCCCSc1nc(NCCN2CCCC2)nc(SCCCCCCCC)n1 [S8S8 D3]	10.4
CCCCCCCCSc1nc(NCCN2CCCCC2)nc(SCCCCCCCC)n1 [S8S8 D4]	11.2
CCCCCCCCSc1nc(NCCN2CCN(C)CC2)nc(SCCCCCCCC)n1 [S8S8 D5]	10.2
CCCCCCCCSc1nc(NCCCN(C)C)nc(SCCCCCCCC)n1 [S8S8 D6]	5.1

SMILES	Absolute DNA transfection efficiency in HEK293 cells [%]
CCCCCCCCSc1nc(NCCN(CC)CC)nc(SCCCCCCCC)n1 [S8S8 D7]	10.1
CCCCCCCCSc1nc(NCCCN2CCOCC2)nc(SCCCCCCCC)n1 [S8S8 D8]	13.8
CCCCCCCCSc1nc(NCCCN2CCN(C)CC2)nc(SCCCCCCCC)n1 [S8S8 D9]	12.1
CCCCCCCCSc1nc(NCC2CCN(C)CC2)nc(SCCCCCCCC)n1 [S8S8 D10]	27.9
CCCCCCCCCSc1nc(NCCN(C)C)nc(SCCCCCCCC)n1 [S8S9 D1]	15.6
CCCCCCCCCSc1nc(NCCN2CCOCC2)nc(SCCCCCCCC)n1 [S8S9 D2]	37.0
CCCCCCCCCSc1nc(NCCN2CCCC2)nc(SCCCCCCCC)n1 [S8S9 D3]	15.1
CCCCCCCCCSc1nc(NCCN2CCCCC2)nc(SCCCCCCCC)n1 [S8S9 D4]	13.2
CCCCCCCCCSc1nc(NCCN2CCN(C)CC2)nc(SCCCCCCCC)n1 [S8S9 D5]	5.8
CCCCCCCCCSc1nc(NCCCN(C)C)nc(SCCCCCCCC)n1 [S8S9 D6]	6.3
CCCCCCCCCSc1nc(NCCN(CC)CC)nc(SCCCCCCCC)n1 [S8S9 D7]	29.3
CCCCCCCCCSc1nc(NCCCN2CCOCC2)nc(SCCCCCCCC)n1 [S8S9 D8]	16.0
CCCCCCCCCSc1nc(NCCCN2CCN(C)CC2)nc(SCCCCCCCC)n1 [S8S9 D9]	23.5
CCCCCCCCCSc1nc(NCC2CCN(C)CC2)nc(SCCCCCCCC)n1 [S8S9 D10]	27.9
CCCCCCCCCCSc1nc(NCCN(C)C)nc(SCCCCCCCC)n1 [S8S10 D1]	16.3
CCCCCCCCCCSc1nc(NCCN2CCOCC2)nc(SCCCCCCCC)n1 [S8S10 D2]	18.8
CCCCCCCCCCSc1nc(NCCN2CCCC2)nc(SCCCCCCCC)n1 [S8S10 D3]	8.9
CCCCCCCCCCSc1nc(NCCN2CCCCC2)nc(SCCCCCCCC)n1 [S8S10 D4]	8.3
CCCCCCCCCCSc1nc(NCCN2CCN(C)CC2)nc(SCCCCCCCC)n1 [S8S10 D5]	19.5
CCCCCCCCCCSc1nc(NCCCN(C)C)nc(SCCCCCCCC)n1 [S8S10 D6]	9.3
CCCCCCCCCCSc1nc(NCCN(CC)CC)nc(SCCCCCCCC)n1 [S8S10 D7]	11.4
CCCCCCCCCCSc1nc(NCCCN2CCOCC2)nc(SCCCCCCCC)n1 [S8S10 D8]	13.7
CCCCCCCCCCSc1nc(NCCCN2CCN(C)CC2)nc(SCCCCCCCC)n1 [S8S10 D9]	25.6
CCCCCCCCCCSc1nc(NCC2CCN(C)CC2)nc(SCCCCCCCC)n1 [S8S10 D10]	26.2
CCCCCCCCCCCSc1nc(NCCN(C)C)nc(SCCCCCCCC)n1 [S8S11 D1]	9.2
